# Test results: patent US20230255974A1, “USE OF THYROMIMETICS FOR THE TREATMENT OF CANCER” (THE UNIVERSITY OF VERMONT, priority 2020, published 2023)
# Tests used:
# [1] = test system: SW1736 cells (SW-EV, SW-TRβ); experiment: RNA-seq gene expression in SW-EV and SW-TRβ; type: cell-based, human
# Experimental: RNA-seq Library Construction and Quality Control. 80% confluent monolayers of SW-EV and SW-TRβ cells were hormone starved for 24 hours in phenol red free RPMI with charcoal-stripped fetal bovine serum. 10^−8M T3 was added and incubated for 24 hours prior to sample collection. Total RNA was extracted and purified using RNeasy Plus Kit (Qiagen) according to manufacturer's protocol. Purity of the total RNA samples was assessed via BioAnalyzer (Agilent) and samples with a RIN score >7 were used for library construction. rRNA was depleted using 1 μg of total RNA with the RiboErase kit (KAPA Biosystems). Strand-specific Illumina cDNA libraries were prepared using the KAPA Stranded RNA-Seq library preparation kit with 10 cycles of PCR (KAPA Biosystems). Library quality was assessed by BioAnalyzer (Agilent) to ensure an average library size of 300 bp and the absence of excess adaptors in each sample. RNA-Seq libraries were pooled and sequenced on the Illumina HiSeq 1500 with 50 bp single-end reads. Quality scores across sequenced reads were assessed using FASTQC. […] For alignment and transcript assembly, the sequencing reads were mapped to hg38 using STAR. Sorted reads were counted using HTSeq and differential expression analysis was performed using DESeq2.
# [2] = test system: SW1736 cells (SW-EV, SW-TRβ); experiment: Soft agar colony formation assay; type: cell-based, human; conditions: 10^−8 M T3, 14 days
# Experimental: Soft Agar Colony Formation Assay. Soft agar colony forming assays were used to assess anchorage-independent growth. A layer 0.50% agar in thyroid media (as described) was solidified in 6-well cell culture plates. SW-EV or SW-TRβ cells were plated in a second layer of 0.25% agar in thyroid media. 200 uL of thyroid media was maintained at the top of each well to prevent the agar from drying. […] Colonies were allowed to grow for 14 days. Live SW-EV and SW-TRβ colonies were detected via GFP expression using a ChemiDoc XRS+ (Bio-Rad Laboratories). Colonies were then counted with ImageJ using the Colony Counter plugin.
# [3] = test system: NthyOri thyroid cells; conditions: normal-like NthyOri thyroid cells
smiles,measurement,setting,value
"N[C@@H](Cc1cc(I)c(Oc2ccc(O)c(I)c2)c(I)c1)C(=O)O [T3, (2S)-2-amino-3-[4-(4-hydroxy-3-iodophenoxy)-3,5-diiodophenyl]propanoic acid]",expression of epithelial marker CDH1,"[1]; SW1736-TRβ, T3 treated",increased expression
same,expression of mesenchymal marker VIM,"[1]; SW1736-TRβ, T3 treated",decreased
same,expression of cluster 1 genes in the ILK signaling IPA pathway,"[1]; SW-EV and SW-TRβ, T3",repressed
same,thyroid differentiation markers,"[1]; SW-TRβ, T3 treated",significantly induced
same,thyroid differentiation score (TDS),"[1]; SW-TRβ, T3 treated",significantly higher TDS
same,"expression of thyroid-specific cancer stem cell genes ALDH, POU5F1, CD44, FUT4, PROM1","[1]; TRβ overexpression and T3, RNA-seq",significantly reduced expression of the thyroid-specific cancer stem cell genes
same,anchorage-independent colony growth,[2]; SW-EV,reduced anchorage-independent colony growth
same,anchorage-independent colony growth,[2]; SW-TRβ,nearly ablated colony growth
same,cell phenotypic or signaling changes,[3],No cell phenotypic changes or signaling changes were observed
